According to ChEMBL document CHEMBL1201862, “PubChem BioAssay data set” (2004):
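Five concentrations, 48 hours, 96-well plates. GI50 is the concentration that inhibits growth by half.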 Calls of active or inactive are those of the source. Rule as the data show it: active = GI50 up to about 1.1 µM and inactive = higher.

Experiments:
Assay in all cases: NCI-60 cell line screen, 48 h
CCRF-CEM = system: CCRF-CEM
SK-OV-3 = system: SK-OV-3
RXF 393 = system: RXF 393
SK-MEL-28 = system: SK-MEL-28
SF-295 = system: SF-295
HCC 2998 = system: HCC 2998
LOX IMVI = system: LOX IMVI
SNB-75 = system: SNB-75
NCI-H522 = system: NCI-H522
HOP-92 = system: HOP-92
M14 = system: M14
SN12C = system: SN12C
A549 = system: A549
RPMI-8226 = system: RPMI-8226
EKVX = system: EKVX
A498 = system: A498

Measured: GI50

CC(O)c1ccc(C(O)/C(=N\NC(=O)c2ccncc2)c2nc3ccc([N+](=O)[O-])cc3nc2O)cc1 (stereo not drawn)
inactive: CCRF-CEM > 100 µM | SK-OV-3 > 100 µM | RXF 393 > 100 µM | SK-MEL-28 > 100 µM | SF-295 > 100 µM | HCC 2998 75.2 µM | LOX IMVI 30 µM | SNB-75 > 100 µM | NCI-H522 19.8 µM | HOP-92 > 100 µM | M14 > 100 µM | SN12C > 100 µM | A549 > 100 µM | RPMI-8226 > 100 µM

CC(C)C1CC2C(=O)N(c3ccccc3)C(=O)C2c2[nH]c3ccccc3c21 (stereo not drawn)
inactive: CCRF-CEM 14 µM | EKVX 61.7 µM | SK-OV-3 20.5 µM | RXF 393 21.3 µM | SK-MEL-28 23.4 µM | SF-295 6.9 µM | HCC 2998 > 100 µM | SNB-75 6.98 µM | A498 32 µM | M14 38.5 µM | A549 14.4 µM | RPMI-8226 19.8 µM

COc1ccc(C(=O)C(c2ccc(OC)cc2)C2(O)C(=O)Nc3c2ccc(Cl)c3C)cc1 (stereo not drawn)
inactive: CCRF-CEM > 100 µM | EKVX > 100 µM | SK-OV-3 > 100 µM | RXF 393 94.2 µM | SK-MEL-28 > 100 µM | SF-295 > 100 µM | HCC 2998 > 100 µM | LOX IMVI 91.2 µM | SNB-75 37.3 µM | NCI-H522 > 100 µM | A498 > 100 µM | M14 > 100 µM | SN12C > 100 µM | A549 > 100 µM | RPMI-8226 > 100 µM

O=C(NCc1ccncc1)C1COc2cc(-c3cc(=O)c4ccccc4o3)ccc2O1 (stereo not drawn)
inactive: CCRF-CEM > 100 µM | EKVX > 100 µM | SK-OV-3 > 100 µM | RXF 393 > 100 µM | SK-MEL-28 > 100 µM | SF-295 > 100 µM | HCC 2998 > 100 µM | LOX IMVI > 100 µM | SNB-75 38.1 µM | NCI-H522 > 100 µM | HOP-92 > 100 µM | M14 > 100 µM | SN12C > 100 µM | A549 > 100 µM

COc1ccc(OC)c(NC(=O)C(=O)CC(=O)c2sc(-n3nc(-c4ccccc4)cc3-c3ccccc3)nc2C)c1
inactive: CCRF-CEM > 100 µM | SK-OV-3 > 100 µM | RXF 393 > 100 µM | SF-295 > 100 µM | HCC 2998 > 100 µM | LOX IMVI > 100 µM | SNB-75 > 100 µM | NCI-H522 > 100 µM | A498 > 100 µM | M14 > 100 µM | SN12C > 100 µM | A549 > 100 µM | RPMI-8226 > 100 µM

N#CC(/C(=N\NC(=O)c1ccncc1)C(=O)Nc1ccc([N+](=O)[O-])cc1[N+](=O)[O-])c1nc(-c2ccc(Br)cc2)cs1 (stereo not drawn)
inactive: CCRF-CEM > 100 µM | EKVX > 100 µM | SK-OV-3 > 100 µM | SK-MEL-28 > 100 µM | SF-295 > 100 µM | HCC 2998 > 100 µM | LOX IMVI > 100 µM | SNB-75 > 100 µM | A498 > 100 µM | M14 > 100 µM | A549 > 100 µM | RPMI-8226 > 100 µM

CC1(C2COC(=O)C2)SCCCS1 (stereo not drawn)
inactive: CCRF-CEM > 100 µM | EKVX > 100 µM | SK-OV-3 53.8 µM | RXF 393 > 100 µM | SK-MEL-28 > 100 µM | SF-295 > 100 µM | HCC 2998 > 100 µM | LOX IMVI > 100 µM | SNB-75 > 100 µM | NCI-H522 2.79 µM | HOP-92 > 100 µM | M14 > 100 µM | SN12C > 100 µM | A549 > 100 µM

CC(=O)Nc1ccc(-c2nnc(SCC(=O)Nc3ccc([N+](=O)[O-])cc3)o2)cc1
inactive: CCRF-CEM 12.6 µM | SK-OV-3 17.8 µM | RXF 393 14.7 µM | SK-MEL-28 14.3 µM | SF-295 14.1 µM | LOX IMVI 5.15 µM | SNB-75 13.2 µM | NCI-H522 7.85 µM | HOP-92 22.9 µM | M14 13.9 µM | SN12C 16.3 µM | A549 17.5 µM | RPMI-8226 24.7 µM

CC(C)(C)C(=O)OCC(COC(=O)C(C)(C)C)[N+](=O)[O-]
inactive: CCRF-CEM 41.9 µM | EKVX > 100 µM | SK-OV-3 > 100 µM | RXF 393 > 100 µM | SK-MEL-28 > 100 µM | SF-295 > 100 µM | HCC 2998 > 100 µM | LOX IMVI > 100 µM | SNB-75 > 100 µM | NCI-H522 19.1 µM | M14 > 100 µM | SN12C > 100 µM | A549 > 100 µM | RPMI-8226 45.3 µM

ClC1=C(Cl)C(Cl)(Cl)c2c3c(c4c(c21)C(Cl)(Cl)C(Cl)=C4Cl)C(Cl)(Cl)C(Cl)=C3Cl
inactive: CCRF-CEM > 100 µM | EKVX > 100 µM | SK-OV-3 > 100 µM | SK-MEL-28 > 100 µM | SF-295 > 100 µM | HCC 2998 > 100 µM | LOX IMVI > 100 µM | NCI-H522 33.1 µM | M14 > 100 µM | SN12C > 100 µM | A549 > 100 µM | RPMI-8226 > 100 µM
